Measurements taken from patent publication US9623021B2, “Nuclear receptor binding agents” (GTX, Inc., priority 2007, dated 2017).
pKi: −log10 of the molar value.

Key:
[1] = target: ERα ligand binding domain (Homo sapiens (Human), UniProt P03372); assay: Competitive [3H]-estradiol radioligand binding, ERα (Example 21)
[2] = target: ER-α (Rattus norvegicus (Rat), UniProt P06211); assay: Transient transfection and reporter gene assay, ER-α, HEK-293 cells (Example 22A); type: cell-based; conditions: ERE-LUC
Description: Human estrogen receptors (ER-α and ER-β) were cloned from prostate cDNA into a pCR3.1 plasmid vector backbone. PGC-1 was cloned into mammalian two hybrid vector pACT. ER-β H475 was mutated to alanine using site-directed mutagenesis. Sequencing was performed to determine the absence of any non specific mutations. SHP promoter (−572 to +10) (26) was cloned into pGL3 basic LUC reporter vector and human FXR was cloned into pCR3.1. HEK-293 cells were plated at 100,000 cells per well of a 24 well plate in […] (DMEM)+5% charcoal-stripped fetal bovine serum (csFBS). The cells were transfected using Lipofectamine (Invitrogen, Carlsbad, Calif.) with 0.25 μg ERE-LUC, 0.02 μg CMV-LUC (renilla luciferase) and 12.5 ng of rat ER-α or 25 ng rat ER-β. […] Luciferase assays were performed 48 hrs after transfection.
To determine if the selectivity in ER binding also translated into ER-β-selective activity, transient transactivation assays were performed in HEK-293 cells transfected with plasmids encoding ER-α or ER-β and ERE-LUC. The cells were treated with varying concentrations of the ligands and their EC50 values were determined.

[3] = system: Ishikawa endometrial cells; assay: Ishikawa growth assay (alkaline phosphatase); type: cell-based
Description: Ishikawa cells were plated at 15,000 cells/well in 24 well plates in DME:F12 (1:1)+5% csFBS w/o phenol red. The cells were maintained in this medium at 37° C. for 3 days. Medium was changed immediately prior to drug treatment for an additional 72 hrs. After 72 hrs, the cells were fixed with formalin and the amount of alkaline phosphatase (ALP) measured by para-nitrophenyl phosphate method.
This effect is one potential concern in the development of ER-α SERMs.

[4] = system: PPAR-γ; assay: PPAR-γ transactivation (PPRE-LUC) in HEK-293 cells co-transfected with ER-β; type: cell-based; conditions: FIG. 12A left panel
Description: (§1) FIG. 12 depict the effect of ER-β ligand on PPAR-γ function through ligand binding domain (LBD). (A). HEK-293 cells were transfected with 0.25 μg PPRE-LUC, 5 ng CMV-renilla LUC and the indicated receptors (PPAR-γ and ER-β for the left panel and PPAR-α and ER-β for the right panel). The cells were treated 24 hrs after transfection with the indicated ligands and harvested 48 hrs after transfection and firefly luciferase activity was measured and normalized to renilla luciferase. (B). H475 in ER-β LBD is important for its function. H475 in ER-β LBD was mutated to alanine (A) using a site directed mutagenesis kit. Transactivation assay was performed as described in panel A in HEK-293 cells with a titration of ER-β ligands in wild type or ER-β H475A. (C). […] The cells were treated 24 hrs after transfection with the indicated ligands and harvested 48 hrs after transfection and firefly luciferase activity was measured and normalized to renilla luciferase. […] The cells were treated 24 hrs after transfection with the indicated ligands and harvested 48 hrs after transfection and firefly luciferase activity was measured and normalized to renilla luciferase. […] The cells were treated 24 hrs after transfection with the indicated ligands and harvested 48 hrs after transfection and firefly luciferase activity was measured and normalized to renilla luciferase. […]

[5] = system: PPAR-α; assay: PPAR-α transactivation (PPRE-LUC) in HEK-293 cells co-transfected with ER-β; type: cell-based; conditions: FIG. 12A right panel
Description: as §1

[6] = system: LNCaP prostate cancer cells; assay: LNCaP prostate cancer cell proliferation (3H thymidine incorporation); type: cell-based; conditions: treated for 6 days, FIG. 21
Description: The effects of treatment of an ER-β selective NRBA of this invention on cancer cell proliferation was examined using LNCaP prostate cancer cells and C-26 colon cancer cells. LNCaP or C-26 cells were plated in growth medium in 24 well and 6 well plates, respectively. LNCaP cells were treated for 6 days and C-26 cells were treated for 3 days at the indicated concentration. ^3H thymidine incorporation was measured at the end of treatment as an indicator of cell proliferation.

[7] = system: LNCaP cells and human prostate stromal cells xenograft; assay: LNCaP-stromal cell xenograft tumor growth; type: in vivo, nude mice; conditions: 30 mg/kg/day for 21 days, by day 21
Description: Prostate tumor xenografts were established with LNCaP cells and human prostate stromal cells in nude mice to establish the in vivo anti-proliferative effects of these ER-β NRBAs. A 4:1 ratio (based on cell number) of LNCaP:stroma cells was injected subcutaneously in nude mice and allowed to grow until they attained 100 mm^3 in volume, as measured by calipers. […] Tumor volumes were measured twice a week and percent tumor volume calculated, after 10, 14 and 21 days.

[8] = system: ARPE-19 cells; assay: Fluorescent detection of intracellular ROS in ARPE-19 cells (tBH oxidative stress); conditions: 150 μM tBH, FIG. 20B

ERα ligand binding domain, sequence (P03372 whole entry, looked up, species assumed, the tested form may be a part): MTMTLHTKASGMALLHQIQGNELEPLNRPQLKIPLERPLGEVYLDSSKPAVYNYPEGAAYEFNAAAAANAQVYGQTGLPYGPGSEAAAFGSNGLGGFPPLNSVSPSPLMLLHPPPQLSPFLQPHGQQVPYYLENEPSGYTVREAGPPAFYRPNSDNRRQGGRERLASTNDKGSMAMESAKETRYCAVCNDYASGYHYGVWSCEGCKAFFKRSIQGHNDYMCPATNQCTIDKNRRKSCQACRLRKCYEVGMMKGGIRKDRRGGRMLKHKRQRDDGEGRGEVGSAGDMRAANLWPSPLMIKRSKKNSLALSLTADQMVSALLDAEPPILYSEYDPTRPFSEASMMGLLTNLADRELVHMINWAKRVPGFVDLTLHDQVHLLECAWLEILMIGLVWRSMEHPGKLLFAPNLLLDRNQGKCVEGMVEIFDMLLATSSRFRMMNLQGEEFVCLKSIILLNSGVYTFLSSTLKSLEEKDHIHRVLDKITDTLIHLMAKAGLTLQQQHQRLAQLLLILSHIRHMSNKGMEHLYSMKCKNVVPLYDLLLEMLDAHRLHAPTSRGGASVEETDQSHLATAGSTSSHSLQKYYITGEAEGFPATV

Question: With `O=c1c2c(O)cc(O)cc2c(Br)cn1-c1ccc(O)cc1` [Compound 12u, 4-bromo-6,8-dihydroxy-2-(4-hydroxyphenyl)isoquinolin-1(2H)-one] as the compound, how does the pKi [1] read?
Answer: 7.49

Question: What about the “function at ER-α in transactivation” value [2] of the same compound?
Answer: agonists

Question: And the Ishikawa cell proliferation ([3]; FIG. 3C)?
Answer: weakly induce

Question: What about the “concentration at which proliferation of Ishikawa cells was induced” value ([3]; highest concentration tested, ALP assay, 72 hrs) of the same compound?
Answer: 1 µM

Question: What about the “troglitazone-induced PPAR-γ activity” value [4] of the same compound?
Answer: partially inhibited

Question: What about the “WY14643 induced PPAR-α transactivation” value [5] of the same compound?
Answer: did not affect

Question: And the “growth of LNCaP prostate cancer cells” value [6]?
Answer: significantly inhibited the growth

Question: And the “tumor growth (percent tumor volume)” value [7]?
Answer: inhibited the growth of tumor significantly

Question: And the “prevention of ROS formation / oxidative damage” value [8]?
Answer: did not seem to have any effect
